Patent US7985774B2, “Use of 3,5-seco-4-nor-cholestane derivatives for obtaining a cytoprotective drug” (Trophos, priority 2006, dated 2011)

Columns and labels:
[1] = system: rabbit ventricular cardiomyocytes; experiment: Contractile dysfunction test induced by doxorubicin (sarcomer shortening); assay type: cell-based; conditions: doxorubicin 1 μM alone, after 4 hrs of exposure; control −19.49±2.06%
Procedure: A stock solution of 3,5-seco-4-nor-cholestan-5-one oxime-3-ol at a concentration of 10 mM in 100% DMSO was used.
The final concentration in DMSO was the same for all the experimental points, independently of the molecular concentrations used.
3,5-seco-4-nor-cholestan-5-one oxime-3-ol was tested at concentrations of 0.1 and 0.3 μM, diluted in a Tyrode solution (composition in mmol/L: NaCl 135, KCl 5.4, NaH2PO4 0.33, CaCl2 1.2, MgCl2 1.0, Hepes 10; pH adjusted to 7.4 with NaOH).
Isolated ventricular cells are obtained from hearts of male New Zealand rabbits as described in A. d'Anglemont de Tassigny et al., Fund. Clin. Pharmacol, 18: 531-38, 2004. Briefly, the rabbits (2.0-2.5 kg) are anaesthetized with a pentobarbital solution (50 mg/kg) and they then receive heparin (200 IU/kg). The hearts are excised and immediately perfused, for 10-15 minutes by means of a Langendorff apparatus without recirculation with an oxygenated tyrode (calcium-free) isotonic solution (95%, 2-5% CO2) (in mM: NaCl 135, KCl 5.4, Na2PO4 0.33, MgCl2 1.0, HEPES 10, pH adjusted to 7.4 with 1N NaOH at 37° C., 280-300 mOsmol/kgH2O). […]
The myocytes were selected for the study according to the following criterion: a rod-like aspect with very apparent striations and no intracellular vacuola, no spontaneous contraction when they are stimulated with 1 mM Ca^2+, and with constant rest length and contraction amplitude. The length of the sarcomers was measured by means of a video image analysis program and the data were acquired at a rate of 240 samples/s. […]
(§1) Apoptosis is induced in isolated cardiomyocytes by 3-8 hour exposure to 1 μM of doxorubicin added into an isotonic solution containing (in mM) NaCl 110, KCl 5.4, Na2PO4 0.33, NaHCO3 25, glucose 5, MgCl2 0.8, CaCl2 1, pH adjusted to 7.4. […] The contractility of cardiomyocytes was measured every hour during the 8 hrs of exposure to doxorubicin. […]

[2] = system: rabbit ventricular cardiomyocytes; experiment: Annexin V marking of phosphatidylserine (apoptosis) after doxorubicin; assay type: cell-based; conditions: doxorubicin 1 μM alone, 3 hrs; control 100%
Procedure: (§2) Isolated ventricular cells are obtained from hearts of male New Zealand rabbits as described in A. d'Anglemont de Tassigny et al., Fund. Clin. Pharmacol, 18: 531-38, 2004. Briefly, the rabbits (2.0-2.5 kg) are anaesthetized with a pentobarbital solution (50 mg/kg) and they then receive heparin (200 IU/kg). The hearts are excised and immediately perfused, for 10-15 minutes by means of a Langendorff apparatus without recirculation with an oxygenated tyrode (calcium-free) isotonic solution (95%, 2-5% CO2) (in mM: NaCl 135, KCl 5.4, Na2PO4 0.33, MgCl2 1.0, HEPES 10, pH adjusted to 7.4 with 1N NaOH at 37° C., 280-300 mOsmol/kgH2O). Next, all the hearts are perfused for 3 minutes in the “recirculation” mode with the same calcium-free Tyrode solution (coronary flow rate, 10-15 mL/min) added with 1 mg/mL of type II collagenase and 0.28 mg/mL of XIV type protease. Finally, all the hearts are perfused in a mode without any recirculation with the same solution of Tyrode supplemented with 0.3 mM of CaCl2 for 10 min. The left ventricle is removed and cut into small pieces; cell dissociation is achieved by mild mechanical stirring. Extracellular calcium is added by increments every 15 minutes, in order to reach a physiological concentration of 1.0 mM. […]
Annexin V marking of phosphatidylserine was used as a quantitative method for measuring apoptosis by using the MiniMacs cell isolation kit (Miltenyi Biotec, Bergisch, Gladbach, Germany). […] The column is removed from the magnetic field, the cells exposing phosphatidylserine, magnetically retained, are eluted as a positive fraction and counted with a Mallassez cell counter. […]
as §1

[3] = system: caspase-3; experiment: Caspase-3 activity (apoptosis) after doxorubicin; assay type: cell-based, rabbit; conditions: doxorubicin 1 μM alone, 8 hrs; control 19±9
Procedure: as §2
Caspase-3 activity is used as a quantitative method for measuring apoptosis. […] The fluorogenic substrate for measuring caspase-3 activity (DEVD) is marked with the fluorochrome, 7-amino-4-methyl coumarine (AMC), which produces […] fluorescence detectable in UV light at 360/460 nm for 210 min. […]
as §1

[4] = system: C57BL6 mice; experiment: In vivo model of myocardium infarction (coronary occlusion-reperfusion)
Procedure: The purpose of this experiment is to study in vivo the cardioprotective properties of the compounds, 3,5-seco-4-nor-cholestan-5-one oxime-3-ol and 3,5-seco-4-nor-cholestan-5-one oxime-3-N,N-dimethylglycine ester, in a murine coronary occlusion-reperfusion model.
The compounds to be tested are administered intravenously in mice, 5 minutes before reperfusion of the myocardium ischemiated beforehand. As controls, carriers of the compounds beta-cyclodextrin (hereafter called βCD) and water, respectively, are administered under the same conditions as for the compounds.
In order to determine the effect of the tested compounds, the size of the infarction is measured after 24 hour reperfusion.
6-8 week old male C57BL6 mice are anaesthetized with sodium pentobarbital (50 mg/kg i.p.) and are ventilated after intubation with an O2/CO2 (95%/5%) mixture throughout the experiment. The surface electrocardiogram (ECG) is recorded and viewed on an oscilloscope all along surgery. Under strict asepsis conditions, the jugular vein is catheterized for intravenous administration of the compounds. A left lateral thoracotomy is performed and after pericardiotomy, a major branch of the left coronary artery is localized in the latero-posterior region of the left ventricle. A prolene no. 8 suture is positioned around this artery so as to form a mobile loop for making a temporary coronary occlusion.
All the mice were subject to a 30 minute temporary coronary occlusion. Ischemia of the myocardium region is confirmed by cyanosis of the myocardium surface and a deviation of the ST segment of the electrocardiogram.
Each of the compounds (treated group, n=10) or its solvent (control group, n=10) was administered as a bolus intravenously, 5 min before lifting the 30 minutes of coronary occlusion.
3,5-seco-4-nor-cholestan-5-one oxime-3-ol, dissolved beforehand to a final concentration of 0.46 mg/ml in a 30% βCD solution in phosphate buffer prepared by saturation followed by centrifugation, is administered at a dosage of 1 mg/kg.
3,5-seco-4-nor-cholestan-5-one oxime-3-N,N-dimethylglycine ester, dissolved beforehand to a final concentration of 1.56 mg/ml in sterile water by stirring and sonication, is administered at a dosage of 3.9 mg/kg.
The same volume of carrier is administered in the corresponding control groups.
Twenty four hours after the end of coronary occlusion, the mice are re-anaesthetized with sodium pentobarbital (50 mg/kg i.p.) and heparin is administered intravenously (Choay© heparin 1,000 IU/kg). A ligature of the coronary artery is achieved at the same location having been subject to the first occlusion 24 h previously. The mice are then euthanized with a lethal saturated dose of potassium chloride and their heart is rapidly excised and then mounted through the aorta artery on a retrograde perfusion system of the Langendorff type.
A 5% Evans blue solution is perfused retrogradely so that the healthy myocardium is colored in blue; the area made ischemic during the coronary occlusion, or <<area of risk AR>> remaining uncolored by default.
The left ventricle is then cut out into 5 slices with equal thicknesses (1 mm) by means of a slicer specially designed for hearts of mice (Les Isolants de Paris, Palaiseau), which are then weighed.
These slices are incubated in a 1% triphenyltetrazolium chloride solution (TTC, Sigma, Poole, UK) at pH 7.4 for 20 min at 37° C. and then set in 4% formol. TTC has the property of coloring the non-infarcted myocardium in red, and so showing the infarcted areas in white. Each heart slice is placed under a stereo microscope for taking a high definition digital photograph.
Quantification of infarction and the area of risk is carried out by planimetry (Scion Image, Scion, Frederick Md., USA) and referred to the weight of each slice.
The area of risk (non-blue area) is expressed as a percentage of the weight of the left ventricle. The infarction sizes are expressed as a percentage of the weight of the area of risk. […]

[5] = 3.9 mg/kg i.v. bolus in water 5 min before reperfusion, 30 min occlusion, 24 h reperfusion, mean±SEM

## COc1cccc2c1C(=O)c1c(O)c3c(c(O)c1C2=O)C[C@@](O)(C(=O)CO)C[C@@H]3O[C@H]1C[C@H](N)[C@H](O)[C@H](C)O1 [doxorubicin, reference compound]
[1]
  shortening of the peak relatively to the base line: −53.20±7.70%
[2]
  Apoptosis as % of change in annexin V marking: 320%
[3]
  caspase-3 activity: 120 ± 15 fmol/min

## CC(C)CCC[C@@H](C)[C@H]1CC[C@H]2[C@@H]3CCC(=NO)[C@](C)(CCCOC(=O)CN(C)C)[C@H]3CC[C@]12C [3,5-seco-4-nor-cholestan-5-one oxime-3-N,N-dimethylglycine ester]
[4]; [5]
  Area of risk (percentage of the weight of the left ventricle): 8 +/− 3%
  Infarction size (percentage of the weight of the area of risk): 23 +/− 9%
[4]; 3.9 mg/kg i.v., versus carrier (water)
  Infarction size reduction: 42.5%
